Experimental data reported in BindingDB's records for doi:10.1016/s0960-894x(00)00661-2 (Niddk, 2001).

Target: T1, Corticotropin-releasing factor receptor 1 (Rattus norvegicus, UniProt P35353)
T1 sequence (P35353 whole entry): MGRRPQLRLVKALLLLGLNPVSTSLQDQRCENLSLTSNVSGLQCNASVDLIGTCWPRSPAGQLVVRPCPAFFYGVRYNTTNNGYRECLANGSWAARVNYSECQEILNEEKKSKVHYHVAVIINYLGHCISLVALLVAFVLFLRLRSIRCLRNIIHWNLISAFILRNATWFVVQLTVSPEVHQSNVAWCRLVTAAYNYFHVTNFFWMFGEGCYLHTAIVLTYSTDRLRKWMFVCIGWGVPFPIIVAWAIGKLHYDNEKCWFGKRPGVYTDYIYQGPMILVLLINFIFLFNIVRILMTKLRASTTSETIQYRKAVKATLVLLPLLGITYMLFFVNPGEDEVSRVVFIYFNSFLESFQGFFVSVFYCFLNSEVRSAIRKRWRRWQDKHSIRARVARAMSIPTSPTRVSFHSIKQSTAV
Experiment: ChEBML_51283
Source text: Binding affinity towards Corticotropin releasing hormone receptor type 1 of rat cerebellum using [125I]Tyr-sauvagine as radioligand.

- Ki: 3 nM
SMILES: CCC[CH2][Sn]([CH2]CCC)([CH2]CCC)[c]1cc(Cl)c(Nc2nc(C)nc(N(CCC)CC3CC3)c2Cl)c(Cl)c1 [5-Chloro-N-cyclopropylmethyl-N'-(2,6-dichloro-4-tributylstannanyl-phenyl)-2-methyl-N-propyl-pyrimidine-4,6-diamine]
